This note sets out measurements from patent US5053561A, “Method of isolating trans-1,1,4,4-tetraalkyl-2-butene-1,4-diols” (BASF Aktiengesellschaft, priority 1989, dated 1991).

Structures are written as SMILES.

The nature of the data set: Determination of the distribution coefficients between polar and non-polar phases. The format is physicochemical. Particulars: for Distribution coefficient k: 25° C.; for phase in which the isomer accumulates: seen from the distribution coefficients of Table 1. The source says:
To achieve separation of the cis- and trans-isomers of the alkenediols I which is as complete, efficient and economical as possible, it is necessary, when selecting the solvents for the polar and non-polar phases, to ensure that the quotient of the distribution coefficients ktrans /kcis of the trans- and cis-isomers between the polar and non-polar phases is as large as possible. The distribution coefficient k of the cis- or trans-isomer is defined as the concentration of isomer in the polar phase divided by the concentration of the same isomer in the non-polar phase in the equilibrium state, as illustrated by the following equations (1) and (2): [formula]
2 g of cis- or trans-alkenediol were dissolved, at 25° C., in a mixture of 40 ml of a polar solvent and 40 ml of a non-polar solvent. The mixture was vigorously shaken in a separating funnel for 10 minutes. Following separation of the phases, the solvents were removed by distillation under reduced pressure. The residues were weighed, and the results were used to calculate the distribution coefficients as defined in equations (1) and (2) above (see Table 1 below).

The mark [1] stands for this setting: polar phase water + 2% methanol, non-polar phase toluene.
[2] abbreviates: polar phase water + 10% ethanol, non-polar phase toluene.
Setting [3] is: polar phase water, non-polar phase cyclohexane.
Setting [4] is: polar phase water, non-polar phase methyl cyclohexane.
Setting [5] is: polar phase water, non-polar phase methyl isobutylketone.
Setting [6] is: polar phase water, non-polar phase methylene chloride.
Setting [7] is: polar phase water, non-polar phase n-hexane.
[8] abbreviates: polar phase water, non-polar phase toluene.

`CC(C)(O)/C=C\C(C)(C)O` [cis, cis-2,5-dimethyl-3-hexene-2,5-diol]: the “phase in which the isomer accumulates” value was “accumulates in the non-polar phase”. Besides, the Distribution coefficient k under setting [1] was 0.39. For the same compound, the Distribution coefficient k under setting [2] is reported as 0.35. Moreover, under setting [3], the Distribution coefficient k was found to be 0.56. Besides, the Distribution coefficient k under setting [4] is 0.61. In addition, the Distribution coefficient k under setting [5] was determined as 0.09. Besides, the Distribution coefficient k under setting [6] was determined as 0.17. This compound returned a Distribution coefficient k under setting [7] of 0.76. Also, the Distribution coefficient k under setting [8] is 0.38.
As for `CC(C)(O)/C=C/C(C)(C)O` [trans, trans-2,5-dimethyl-3-hexene-2,5-diol], the “phase in which the isomer accumulates” value is recorded as “accumulates in the polar phase”. Besides, the Distribution coefficient k under setting [1] is 62. Also, the Distribution coefficient k under setting [2] was determined as 23. The same compound gave a Distribution coefficient k under setting [3] of 30. Moreover, under setting [4], the Distribution coefficient k worked out at 52. Under setting [5], the Distribution coefficient k was found to be 3.0. The Distribution coefficient k under setting [6] is reported as 7.3. In addition, the Distribution coefficient k under setting [7] came to 34. This compound also registered a Distribution coefficient k under setting [8] of 25.
